Literature values, collected in US7658956B2, “Erectile dysfunction phyto-nutraceutical synergistic composition” (priority 2006, dated 2010).

Experiments:
[1] = tested on: rabbit corpus cavernosum
[2] = tested on: spermatozoa; conditions: in vitro
[3] = tested on: asthenospermic patients
[4] = tested on: bacterial resistance mechanism (multidrug pump)
[5] = tested on: patients with erectile dysfunction; conditions: 30 patients per group

Compound: C[C@H](CC[C@@]1(O)O[C@H]2C[C@H]3[C@@H]4CC=C5C[C@@H](O[C@@H]6O[C@H](CO)[C@@H](O[C@@H]7O[C@@H](C)[C@H](O)[C@@H](O)[C@H]7O)[C@H](O)[C@H]6O[C@@H]6O[C@@H](C)[C@H](O)[C@@H](O)[C@H]6O)CC[C@]5(C)[C@H]4CC[C@]3(C)[C@H]2[C@@H]1C)CO[C@@H]1O[C@H](CO)[C@@H](O)[C@H](O)[C@H]1O [Protodioscin]
- pro-erectile activity (relaxant effect) [1]: pro-erectile activity

Compound: Vitamin E
- ROS mediated damage on spermatozoa [2]: protects against ROS mediated damage
- treated patients who impregnated their spouses ([3]; Eleven out of 52 treated patients): 21%
- MDA concentration in spermatozoa ([3]; oral, asthenospermic patients): significantly decreased
- sperm motility ([3]; oral, asthenospermic patients): improved sperm motility

Compound: COc1cc([C@H]2Oc3cc(-c4cc(=O)c5c(O)cc(O)cc5o4)cc(OC)c3O[C@@H]2CO)ccc1O (racemic) [5′-MHC, 5′-methoxyhydnocarpin]
- accumulation of berberine in the cells ([4]; in the presence of 5′-MHC): strong increase
- activity of herbal Berberine alkaloids under the action of 5′-MHC ([4]; in vitro): strongly potentiated

Compound: O=c1n(CCCN2CCN(c3cccc(Cl)c3)CC2)nc2ccccn12 [trazodone]
- overall therapeutic efficacies on erectile dysfunction [5]: 30%
